Our source for the Bulk density values is patent publication US10912781B2, “Pharmaceutical composition comprising licarbazepine acetate” (BIAL-Portela & C.A., S.A., priority 2007, dated 2021).

The nature of this series: Bulk density / apparent volume (Ph. Eur. edn. 6, test 2.9.15 or USP 31 <616>). The format is physicochemical. To be noted: API prior to granulation / preparation prior to forming the final formulation. As to the method:
Suitable methods for determining the bulk density of the preparation will be well known to the skilled chemist, for example, the European Pharmacopeia edition 6, Test 2.9.15 “apparent volume”, pages 285-286, EDQM, 2007, or USP 31, vol. 1 test <616> page 231-232, The United States Pharmacopeia Convention, 2008. The apparent density of a compressed formulation is measured in terms of mass and volume of the formulation and is well within the capabilities of the skilled person.
A suitable method is described below: • Apparatus • settling apparatus capable of producing in 1 minute 250±15 taps from a height of 3±0.2 mm. The support for the graduated cylinder with its holder, has a mass of 450±5 g • a 250 ml graduated cylinder (2 ml intervals) with a mass of 220±40 g • Method • Into a dry cylinder, introduce without compacting, 100.0 g […] of the test substance. Secure the cylinder in its holder. Read the unsettled apparent volume (V0) to the nearest milliliter. Carry out 10, 500 and 1250 taps and read the corresponding volumes V10, V500, V1250, to the nearest milliliter. If the difference between V500 and V1250 is greater than 2 ml, carry out another 1250 taps. […]
Bulk/apparent density may then be determined in g/ml using the following formula: m/V0 where m is the mass in grams and V0 the unsettled apparent volume

licarbazepine acetate: the Bulk density result was “less than 0.3 g/mL”. Also, the Bulk density result (listed as API) is “about 0.28 g/mL”.
